How the values were obtained:
BT48 = experiment: alamarBlue BTIC viability assay, BT48; type: cell-based; conditions: Homo sapiens; BTIC line BT48, alamarBlue
BT50 = experiment: alamarBlue BTIC viability assay, BT50; type: cell-based; conditions: Homo sapiens; BTIC line BT50, alamarBlue
BT69 = experiment: alamarBlue BTIC viability assay, BT69; type: cell-based; conditions: Homo sapiens; BTIC line BT69, alamarBlue
BT124 = experiment: alamarBlue BTIC viability assay, BT124; type: cell-based; conditions: Homo sapiens; BTIC line BT124, alamarBlue
BT143 = experiment: alamarBlue BTIC viability assay, BT143; type: cell-based; conditions: Homo sapiens; BTIC line BT143, alamarBlue
BT147 [1] = experiment: alamarBlue BTIC viability assay, BT147; type: cell-based; conditions: Homo sapiens; BTIC line BT147, alamarBlue
BT189 = experiment: alamarBlue BTIC viability assay, BT189; type: cell-based; conditions: Homo sapiens; BTIC line BT189, alamarBlue
BT147 [2] = experiment: neurosphere assay, BT147; type: cell-based, human; conditions: 3 μM
cleaved PARP = experiment: western blotting of cleaved PARP in BTICs; type: cell-based, human; conditions: BT69, 24 hours
Protocol: (§1) BTIC spheres were enzymatically dissociated as described above and plated at 10^6 cells/2 mL of media. Cells were treated with vehicle (DMSO), pacritinib, TMZ, or a combination of pacritinib and TMZ and pelleted at select time points (3, 24, and 48 hours). For protein extraction, BTICs were lysed in modified radio-immunoprecipitation assay buffer supplemented with Complete Mini protease (Roche) and Halt phosphatase (Thermo Scientific) inhibitor cocktails. […] Blots were stained with primary antibodies followed by horseradish peroxidase-conjugated secondary antibodies. […] Cell Signaling Technology), STAT3 (1:1000; Cell Signaling Technology), p-Akt S473 (1:1000; Cell Signaling Technology), Akt (1:1000; Cell Signaling Technology), p-p44/42 MAPK (T202/Y204) (1:1000; Cell Signaling Technology), p44/42 MAPK (1:4000; Cell Signaling Technology), poly (ADP-ribose) polymerase (1:1000; Cell Signaling Technology), β-tubulin (1:1000; Cell Signaling Technology), and Actin (1:1000; Santa Cruz Biotechnology). Secondary antibodies included donkey anti-mouse (1:5000; Cell Signaling Technology), donkey anti-goat (1:5000; Millipore), and goat anti-rabbit (1:5000; Cell Signaling Technology). […] Bands were visualized with the SuperSignal West Pico chemiluminescent solution (Thermo Scientific) and an Amersham™ Imager 600 (General Electric).

p-Akt S473 = experiment: western blotting of p-Akt in BTICs; type: cell-based, human
Protocol: as §1

[3] = system: p-p44/42 MAPK (T202/Y204); experiment: western blotting of p-p44/42 MAPK in BTICs; type: cell-based, human
Protocol: as §1

in vitro = in vitro ADME, mouse; conditions: mouse liver microsomes, 30-minute incubation; for % Remaining: 1 μM
Protocol: Working stocks were initially diluted to a concentration of 40 μM in 0.1 M potassium phosphate buffer before addition to the reaction vials. Pooled mouse (CD-1, male) or human (50 donors) liver microsomes were utilized at a final concentration of 0.5 mg/mL. Duplicate wells were used for each time point (0 and 30 minutes). Reactions were carried out at 37°C in a shaker, and the final concentration of DMSO was kept constant at 0.01%. The final volume for each reaction was 100 μL, which included the addition of an NADPH-Regeneration solution (NRS) mix. The NRS mix was comprised of glucose 6-phosphate dehydrogenase (0.4 U/mL), NADP+ (1.3 mM), MgCl2 (3.3 mM), and glucose 6-phosphate (3.3 mM) in assay mixtures. Upon completion of the 30-minute time point, reactions were terminated by the addition of 1.5-volumes (150 μL) of ice-cold acetonitrile with 0.5% formic acid and internal standard. Samples were then centrifuged at 4,000 rpm for 10 minutes to remove debris and precipitated protein. Approximately 150 μL of supernatant was subsequently transferred to a new 96-well microplate for LC-MS analysis. Narrow-window mass extraction LC-MS analysis was performed for all samples using a Waters Xevo quadrupole time-of-flight (QToF) mass spectrometer and an ACQUITY UPLC system, to determine relative peak areas of parent compound.

[4] = system: BT53 orthotopic xenograft; experiment: Kaplan-Meier survival, orthotopic BT53 xenograft; type: in vivo, mice; conditions: BT53 xenografted mice, 100 mg/kg pacritinib, three weeks; p < 0.7237 log-rank
Protocol: For Kaplan-Meier survival studies, BTIC spheres from BT53 or BT147 were dissociated to a single-cell suspension. Mice were anaesthetized using 10 mg/kg ketamine/xylazine. Buprenorphine (0.05 mg/kg) was administered once pre-operatively and once post-operatively to minimize animal suffering. 5 x 10^4 cells were stereotactically implanted into the right striata of 8- to 10-week-old female severe combined immunodeficient (SCID) mice, as previously described and approved by the University of Calgary Health Sciences Animal Care Committee, accredited by CCAC. Mice were randomized to vehicle or treatment cohorts, with a minimum of 8 mice per group, one week after cell implantation. For BT147, vehicle (Ora-Plus; Galenova), pacritinib (100 mg/kg), TMZ (30 mg/kg), or a combination of pacritinib (100 mg/kg) and TMZ (30 mg/kg), were administered via oral gavage. Animals completed a five-week regimen of three weekly treatments for a total of 15 treatments. For BT53, 100 mg/kg of pacritinib was administered twice per day alone or in combination with 50 mg/kg TMZ once per day, for one week via oral gavage. Following this, mice received 100 mg/kg pacritinib twice per day in combination with 10 mg/kg TMZ once per day for two weeks. […] The body weights were closely monitored throughout the course of the experiment. […]

[5] = system: BT206 orthotopic xenograft; experiment: Kaplan-Meier survival, orthotopic BT206 xenograft; type: in vivo; conditions: BT206 xenografted mice; p < 0.0968 log-rank
[6] = human, in vivo, cited from earlier work
BT53 = experiment: alamarBlue BTIC viability assay, BT53; conditions: Homo sapiens, read-out: IC50 (viability)
Protocol: Accumax (eBioscience) was used to enzymatically dissociate BTIC spheres to single cells. Cells were seeded at 1000 cells per well in 96-well plates and treated with vehicle (DMSO) or drug, 24 hours after plating. BTIC viability was assessed after 7–14 days, once spheres were formed in control wells, by performing the alamarBlue™ (Invitrogen) assay per the manufacturer’s instructions. In brief, the alamar dye was added to each well and plates were read 6 hours later. Fluorescence intensity (excitation 540 nm; emission 590 nm) was measured on a SpectraMax M Series Multi-Mode Microplate reader. […] All experiments were performed in triplicate with a minimum of 3 wells per condition.
BTICs were treated with suboptimal doses of 1 μM pacritinib (CTI Biopharma), 10 μg/mL TMZ (Sigma), or a combination of pacritinib and TMZ. […] Percent inhibition was determined by normalizing each well to the control well (0.1% DMSO).

[7] = BT147 and BT53, low micromolar concentrations, 3 hours

C1=C/COCc2cc(ccc2OCCN2CCCC2)Nc2nccc(n2)-c2cccc(c2)COC/1 [pacritinib]
IC50 (BT48): 1.03 µM
IC50 (BT50): 0.62 µM
IC50 (BT69): 1.26 µM
IC50 (BT124): 1.33 µM
IC50 (BT143): 1.36 µM
IC50 (BT147 [1]): 0.99 µM
IC50 (BT189): 1.01 µM
sphere formation (BT147 [2]): completely abolished sphere formation
cell death (cleaved PARP levels) (cleaved PARP): increase in cleaved PARP levels
p-Akt S473 (p-Akt S473; BT147 and BT53, 5 and 10 μM): decreased
phosphorylation of AKT S473 (p-Akt S473; [7]): unchanged levels of phosphorylation
p-p44/42 MAPK ([3]; BT53, 5 and 10 μM): decreased p-p44/42 MAPK
phosphorylation of p44/42 MAPK (T202/Y204) [3, 7]: unchanged levels of phosphorylation
stability rating (in vitro): Unstable
% Remaining (in vitro): < 1%
% Remaining (in vitro; listed as Pacritinib (run 1)): 0.3%
% Remaining (in vitro; listed as Pacritinib (run 2)): 0.6%
survival advantage, single agent [4]: failed to provide a survival advantage
efficacy of treatment alone (Kaplan-Meier survival) [5]: no efficacy
Cmax ([6]; 100 mg): 7.8 µM
mean maximum concentration (Cmax) ([6]; 100 mg): 3699 ng/mL
median time to maximum concentration (Tmax) [6]: 5 h
IC50 (BT53): 0.92 µM
